This assay in a line: odor evaluation of filter papers treated with active agent and artificial perspiration mixture by six trained testers. The following applies: 0.5-wt % solution in ethanol on filter paper; 24 hours at room temperature; scale 0 (no difference from ethanol control) to 4 (very much better odor reduction). The source says:
An artificial perspiration mixture was produced by mixing different short-chain fatty acids at specific quantitative ratios (C6, C8, C9, C10, isovaleric acid). respective 0.5-wt % solutions in ethanol were produced of each of the active agents and active-agent combinations to be tested, applied in a standardized quantity onto filter paper, and dried for one hour at room temperature. The artificial perspiration mixture was then applied in a standardized quantity, and the filters were stored for 24 hours at room temperature in a closed container. An odor evaluation of the samples was carried out by six trained testers using a scale from 0 (no difference from ethanol control) to 4 (very much better odor reduction as compared with ethanol control).

With `CC(C)[C@@H]1CC[C@@H](C)C[C@H]1O` (racemic) [DL-Menthol, DL-menthol], the “reduction in perspiration odor as compared with the ethanol control” value (from here on “reduction in perspiration odor”) is given as 1.67 units.

In the case of `C/C=C\c1ccc(OC)cc1` [anethole], the “reduction in perspiration odor” value is on record as 2.42 units.

With `CC12CCC(CC1)C(C)(C)O2` [eucalyptol, 1,3,3-trimethyl-2-oxabicyclo[2.2.2]octane], the “reduction in perspiration odor” value is 0.92 units.
